Laboratory results from patent US20190367516A1 (Bayer Pharma Aktiengesellschaft, priority 2015, published 2019).
Read-outs that look alike come from different tables or passages of the source.

Columns and labels:
human M2 receptor [1] = target: T1, human M2 receptor (Homo sapiens, UniProt P08172); format: cell-based; conditions: α >1 = positive cooperativity
T1 sequence (P08172 1-466): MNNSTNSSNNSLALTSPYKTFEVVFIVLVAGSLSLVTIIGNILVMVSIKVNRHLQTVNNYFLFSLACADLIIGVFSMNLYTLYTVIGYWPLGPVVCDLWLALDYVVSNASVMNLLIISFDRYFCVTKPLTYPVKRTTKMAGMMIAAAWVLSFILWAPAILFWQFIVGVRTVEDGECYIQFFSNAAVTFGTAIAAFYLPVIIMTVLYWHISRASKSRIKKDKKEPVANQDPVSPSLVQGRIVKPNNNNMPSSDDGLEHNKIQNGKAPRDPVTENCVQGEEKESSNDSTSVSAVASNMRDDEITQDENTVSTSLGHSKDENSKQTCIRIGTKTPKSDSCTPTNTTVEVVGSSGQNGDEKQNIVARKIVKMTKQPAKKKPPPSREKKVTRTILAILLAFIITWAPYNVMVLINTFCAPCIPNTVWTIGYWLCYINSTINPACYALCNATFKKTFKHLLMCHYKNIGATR

human M2 receptor [2] = target: T1, human M2 receptor; conditions: for Emax: read-out: Efficiency, boosting of the acetylcholine effect at EC20 acetylcholine concentration
Excerpt: Functional M2-GIRK1/4 Activation Test
The binding of orthosteric agonists (endogenous ligand: acetylcholine) to the M2 receptor leads to receptor activation or a change in conformation of the receptor in the manner of a shift in equilibrium in favour of the active receptor conformation.
The agonist-induced change in conformation of the M2 receptor results in a Gαi protein activation. […] Under physiological conditions, the result is then a selective efflux of potassium from the cell along the electrochemical gradient. […] The extent of hyperpolarization can therefore be regarded as a measure of the activation of the M2 receptor.
The test cell used is a recombinant CHO-DUKX cell line which has been stably transfected with cDNA coding for the human M2 receptor and with cDNA coding for both GIRK1/4 subunits (CHO-DUKX-M2-GIRK). The transmembrane potential, or the relative changes in the transmembrane potential as a function of substance addition or M2 activation, is determined by means of a voltage-sensitive dye (FLIPR Membrane Potential Assay Kit Blue, Molecular Devices # R8034) and the measurement of cell fluorescence using a proprietary fluorescence imaging instrument.
Determination of the Allosteric Potency of the Test Substances (EC50 Value)
The sowing medium consisted of MEM alpha medium (supplemented with 5% FCS, 2% Glutamax, no genticin).
For the particular measurement, the medium was removed and the cells were laden with the voltage-sensitive dye for at least 6 min at room temperature (30 μl of loading buffer per 384-well). This was followed, in a first measurement, by the determination of the fluorescence for the resting transmembrane potential for a period of 5 sec. Thereafter, 10 μl in each case of the test substances diluted in loading buffer were added, followed by a second measurement to determine the transmembrane potential for a period of 50 sec. Finally, the cells were admixed with 10 μl of agonist solution (acetylcholine dissolved in loading buffer). Acetylcholine was used at the concentration corresponding to the EC20, which had been determined in a preliminary test. The M2-mediated GIRK1/4 activation or hyperpolarization was then monitored in a third measurement over a period of 60 sec. The EC50 value (degree of allosteric potency of test compound) and the efficiency (measure of the boosting of the acetylcholine effect at an EC20 acetylcholine concentration) were determined with the aid of a 4-parameter logistic function (Hill function).

[3] = shift in the acetylcholine dose-response curve (Allosteric EC50 shift, GraphPad PRISM)
[4] = Receptor activity EC50, M2-GIRK1/4 activation test, acetylcholine at EC20, allosteric potency, in some cases mean values from two or more determinations
[5] = shift of acetylcholine dose-response curve (Allosteric EC50 shift)
[6] = Receptor activity EC50, allosteric potency at EC20 acetylcholine, M2-GIRK1/4 reporter cells, in some cases mean of two or more determinations

SMILES	Cooperativity (alpha factor) (human M2 receptor [1]; [3])	EC50 (human M2 receptor [2]; [4]) [nM]	Cooperativity (alpha factor) (human M2 receptor [1]; [5])	EC50 (human M2 receptor [2]; [6]) [nM]	Emax (human M2 receptor [2]; M2-GIRK1/4 reporter cells) [%]
O=C(NC12CC3CC(CC(C3)C1)C2)c1cn(-c2ccc(F)cc2F)c2nc(NCC(F)(F)F)ccc2c1=O [Example 90, 1-(2,4-Difluorophenyl)-4-oxo-N-(tricyclo[3.3.1.1^3,7]dec-1-yl)-7-[(2,2,2-trifluoroethyl)amino]-1,4-dihydro-1,8-naphthyridine-3-carboxamide]	11	298	–	–	–
C[C@H](NC(=O)c1cn(-c2c(F)cc(F)cc2Cl)c2nc(N3C[C@@H](O)CC3=O)ccc2c1=O)C(F)(F)F [Example 409, 1-(2-Chloro-4,6-difluorophenyl)-7-[(4S)-4-hydroxy-2-oxopyrrolidin-1-yl]-4-oxo-N-[(2S)-1,1,1-trifluoropropan-2-yl]-1,4-dihydro-1,8-naphthyridine-3-carboxamide]	–	–	22	19	99.5
CC[C@H](NC(=O)c1cn(-c2c(F)cc(F)cc2F)c2nc(N3CCCN(CCO)C3=O)ccc2c1=O)C(F)(F)F [Example 365, 7-[3-(2-Hydroxyethyl)-2-oxotetrahydropyrimidin-1(2H)-yl]-4-oxo-N-[(2S)-1,1,1-trifluorobutan-2-yl]-1-(2,4,6-trifluorophenyl)-1,4-dihydro-1,8-naphthyridine-3-carboxamide]	20	21	–	–	–
O=C(NC(c1ccccc1Cl)C(F)(F)F)c1cn(-c2ccccc2F)c2nc(N3CCC(O)C3=O)ccc2c1=O (racemic) [Example 287, N-[1-(2-Chlorophenyl)-2,2,2-trifluoroethyl]-1-(2-fluorophenyl)-7-[3-hydroxy-2-oxopyrrolidin-1-yl]-4-oxo-1,4-dihydro-1,8-naphthyridine-3-carboxamide]	24	145	–	–	–
CC[C@H](NC(=O)c1cn(-c2ccc(F)cc2F)c2nc(N3CC[C@H](F)C3)ccc2c1=O)C(F)(F)F [Example 64, 1-(2,4-Difluorophenyl)-7-[(3S)-3-fluoropyrrolidin-1-yl]-4-oxo-N-[(2S)-1,1,1-trifluorobutan-2-yl]-1,4-dihydro-1,8-naphthyridine-3-carboxamide]	28	12	–	–	–
CO[C@H]1CCN(c2ccc3c(=O)c(C(=O)N[C@@H](C4CC4)C(F)(F)F)cn(-c4c(F)cc(F)cc4F)c3n2)C1 [Example 535, N-[(1 S)-1-Cyclopropyl-2,2,2-trifluoroethyl]-7-[(3S)-3-methoxypyrrolidin-1-yl]-4-oxo-1-(2,4,6-trifluorophenyl)-1,4-dihydro-1,8-naphthyridine-3-carboxamide]	–	–	27	7	100
O=C(NC(COC(F)(F)F)c1ccccc1)c1cn(-c2ccc(F)cc2F)c2nc(N3C[C@@H](O)CC3=O)ccc2c1=O (mixture of isomers) [Example 233, 1-(2,4-Difluorophenyl)-7-[(4S)-4-hydroxy-2-oxopyrrolidin-1-yl]-4-oxo-N-[1-phenyl-2-(trifluoromethoxy)ethyl]-1,4-dihydro-1,8-naphthyridine-3-carboxamide]	41	57	–	–	–
C[C@@H]1C[C@H](F)CN1c1ccc2c(=O)c(C(=O)NC34CC5CC(CC(C5)C3)C4)cn(-c3ccc(F)cc3F)c2n1 [Example 11, 1-(2,4-Difluorophenyl)-7-[(2R,4S)-4-fluoro-2-methylpyrrolidin-1-yl]-4-oxo-N-(tricyclo[3.3.1.1^3,7]dec-1-yl)-1,4-dihydro-1,8-naphthyridine-3-carboxamide]	10	61	–	–	–
O=C(NC12CC3CC(CC(C3)C1)C2)c1cn(-c2ccc(F)cc2F)c2nc(N3CCC4(C3)CC4(F)F)ccc2c1=O (centres unmarked) [Example 13, 7-(1,1-Difluoro-5-azaspiro[2.4]hept-5-yl)-1-(2,4-difluorophenyl)-4-oxo-N-(tricyclo[3.3.1.1^3,7]dec-1-yl)-1,4-dihydro-1,8-naphthyridine-3-carboxamide]	6	71	–	–	–
